US20260207798A1, “CYCLIC PEPTIDES AS PET IMAGING AGENTS OF GRANZYME B” (priority 2022, published 2026)
Bridge positions count the residues as written; N and C are the ends. Square brackets hold non-standard residues; d marks the D form. Primed or numbered codes have the meaning given here. Peptide text beside a SMILES is read from it. I, II: the chains in the order shown. * marks the point of attachment. NOTA‑1 = 1,4,7-triazacyclononane-N,N',N''-triacetic acid phenyl thiourea; X1 = O=C(O)CN1CCN(CC(=O)O)CC(Cc2ccc(NC(=S)*)cc2)N(CC(=O)O)CC1; Pro(trans-4-F) = O=C(O)[C@@H]1C[C@@H](F)CN1; Pro(4R-Me) = C[C@H]1CN[C@H](C(=O)O)C1; Tic = O=C(O)[C@@H]1Cc2ccccc2CN1; PEG2′ = not defined here

Tests used:
[1] = target: Human Granzyme B (Homo sapiens, UniProt P10144); test: Granzyme B biochemical inhibition assay (fluorescence); details: 8 nM granzyme B; values below 8 nM reported as <8 nM
Chain of Human Granzyme B (P10144 21-247): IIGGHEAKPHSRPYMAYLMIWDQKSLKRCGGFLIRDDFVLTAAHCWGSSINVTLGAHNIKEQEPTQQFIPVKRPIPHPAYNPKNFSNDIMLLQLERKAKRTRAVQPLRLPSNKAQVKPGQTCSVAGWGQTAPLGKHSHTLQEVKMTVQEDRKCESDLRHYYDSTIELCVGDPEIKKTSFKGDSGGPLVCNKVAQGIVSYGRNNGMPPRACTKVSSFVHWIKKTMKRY
Method: Compounds to be tested as inhibitors were manually prepared in a 2-fold serial dilutions in DMSO, spanning 200 uM to 0.39 uM in a Labcyte Echo qualified low dead volume 384-well plate. Then an ECHO acoustic liquid handler was used to dispense 125 nL of each compound from 384-well plate into a PerkinElmer Proxiplate-384 Plus F assay plate. For the positive control of inhibitor, (S)-3-((3S,6S)-3-((2S,3S)-2-acetamido-3-methylpentanamido)-4-oxo-1,2,3,4,6,7-hexahydroazepino[3,2,1-hi]indole-6-carboxamido)-4-oxobutanoic acid (see C. A. Willoughby et al./Bioorg. Med. Chem. Lett. 12 (2002) 2197-2200 2199) was used at 2 uM assay concentration. For no inhibition control, DMSO was used. Each compound was run in duplicate.
Once the compounds were dispensed in the plates, enzyme mix and substrate mix were prepared. Enzyme mix was prepared by preparing a mixture of 300 uL granzyme B (final concentration 8 nM) and 10.8 mL of assay buffer (from Sigma kit). Substrate mix was prepared by combining 500 uL substrate (from Sigma kit) and 3 mL of assay buffer (from Sigma kit). Enzyme mixture was loaded on BioRaptr and 9.25 uL were added to each well of the assay plate containing compounds. The plate was incubated at room temperature under a metal gasket cover for 30 minutes. Subsequently, 3.125 uL of substrate mix were added to each well using the BioRaptr, reaching a final assay volume of 12.5 uL, and the plate was monitored using a Pherastar FS by 1 read per minute for 30 minutes in fluorescence mode, excitation wavelength is 400 nm and emission wavelength is 510 nm.
The data analysis was performed first in excel, where the slopes of the measured fluorescence from each sample were determined using MARS software from BMG LABTECH. These rates were then multiplied by 10,000 for visualization purposes. The rates, multiplied by 10,000, were normalized to 0% and 100% activity based on the average values of the samples with either 2 uM inhibitor (S)-3-((3S,6S)-3-((2S,3S)-2-acetamido-3-methylpentanamido)-4-oxo-1,2,3,4,6,7-hexahydroazepino[3,2,1-hi]indole-6-carboxamido)-4-oxobutanoic acid, or no inhibitor respectively. All samples were then normalized against these values using the formula={100−[(sample−100% inhib)/0% inhib]}*100 to achieve a normalized percent inhibition. Normalized percent inhibition versus concentration inhibitor was then plotted in Graphpad Prism version 9.0.0 and a variable slope (four parameters) fit was calculated for each inhibitor.

[2] = target: human Granzyme B (hGranzyme B) (Homo sapiens, UniProt P10144); test: Surface plasmon resonance (SPR) binding kinetics to hGranzyme B; details: 25° C., 1:1 binding model, KD=kd/ka; read-out: Granzyme B SPR Kd
Method: The kinetics of test peptide binding to human Granzyme B (hGranzyme B) was determined by SPR. All experiments were performed at 25° C. using the Biacore 8k+ instrument (Cytiva, Marlborough, MA). The Biacore 8k+ Insight Evaluation Software Version 3.0 was used to fit the data with a 1:1 binding model to determine the association rate constant ka (M^−1s^−1, where “M” ~equals molar and “s” ~equals seconds) and the dissociation rate constant kd (s^−1). These rate constants were used to calculate the equilibrium dissociation constant. KD (M)=kd/ka.
To measure the binding kinetics of peptides of interest, surfaces were prepared by a capture method to a Series S Streptavidin (SA) chip using a 1×HBS-EP+ running buffer (Cytiva). hGranzyme B was diluted to 10 μg/mL in IX HBS-EP+ and flowed over spot 2 of each flow cell on the chip at a flow rate of 10 ul/min for 20 s to achieve a level of capture of ~1100 RU. An unmodified spot 1 of each flow cell was used as a matrix binding control or reference surface. Binding kinetics were measured using single cycle kinetics at 25° C. by injecting 5 concentrations with 3-fold serial dilutions of test peptides from 0.01 μM to 1 μM. Compound dilutions were performed manually in a running buffer containing 1×HBS-EP+(Cytiva), and a final concentration of 2% DMSO. The interaction analyses over hGranzyme B, were performed using a 120 s association time and a 900 s dissociation time. All experiments were conducted at a flow rate of 50 μL/min with a data collection rate of 10 Hz.
Peptide dilution series included 2 zero concentration points (no compound) which were averaged and subtracted from the peptide concentration injection as DMSO control responses. Binding data acquired from the reference surface (matrix binding control) were subtracted from the binding data for hGranzyme B surface on the chip to determine specific binding. Next, the association phase data were solvent corrected to account for any signal fluctuation throughout the experiment due to subtle DMSO concentration differences. Corrected response data were analyzed using the Biacore 8k+ Evaluation Software Version 3.0 according to the manufacturer. SPR data for representative compounds of the disclosure are found in Table 8.

[3] = target: T1, human Granzyme B (human, UniProt P10144 21-247); test: cell-based or functional assay
T1 sequence (P10144 21-247 limits assumed): as the sequence (P10144 21-247) above

[4] = target: T1, human Granzyme B; test: SPR, Biacore 8k+, hGranzyme B captured on SA chip, single cycle kinetics, 1:1 model

Row | Molecule | IC50 [1] [nM] | Human Granzyme B IC50 (fluorogenic substrate enzyme inhibition assay) [3] [nM] | further results
1 | C[C@@H](O)[C@@H]1NC(=O)[C@H](CC(=O)O)NC(=O)[C@@H]2C[C@@H](F)CN2C(=O)[C@H](CO)NC(=O)[C@H](CCC(N)=O)NC(=O)[C@H](CC(=O)O)NC(=O)[C@H](CCC(=O)O)NC(=O)[C@H](Cc2ccccc2)NC(=O)[C@H](CC(N)=O)NC(=O)[C@H](Cc2ccccc2)NC(=O)CSC[C@@H](C(=O)NCC(=O)NCC(=O)N[C@@H](CCCCNC(=S)Nc2ccc(CC3CN(CC(=O)O)CCN(CC(=O)O)CCN3CC(=O)O)cc2)C(N)=O)NC(=O)[C@@H]2CCCN2C(=O)[C@H](CCC(N)=O)NC(=O)[C@H](Cc2c[nH]c3ccccc23)NC1=O (single isomer, unassigned) [Compound 12a, *F.N.F.E.D.Q.S.Prot4F.D.T.W.Q.P.*C.G.G.K(NOTA-1).NH2] | < 8 |  | 
2 | C[C@@H]1NC(=O)[C@H](CO)NC(=O)[C@H](CCC(N)=O)NC(=O)[C@H](CC(=O)O)NC(=O)[C@H](CCC(=O)O)NC(=O)[C@H](Cc2ccccc2)NC(=O)[C@H](CC(N)=O)NC(=O)[C@H](Cc2ccccc2)NC(=O)CSC[C@@H](C(=O)NCC(N)=O)NC(=O)[C@@H]2CCCN2C(=O)[C@H](CCC(N)=O)NC(=O)[C@H](Cc2c[nH]c3ccccc23)NC(=O)[C@H]([C@@H](C)O)NC(=O)[C@H](CC(=O)O)NC1=O [Compound 1a, *F.N.F.E.D.Q.S.A.D.T.W.Q.P.*C.G.NH2] ({CH2CO}-FNFEDQSADTWQPCG-NH2; thioether N-14) | < 8 |  | 
3 | C[C@@H]1NC(=O)[C@H](CO)NC(=O)[C@H](CCC(N)=O)NC(=O)[C@H](CC(=O)O)NC(=O)[C@H](CCC(=O)O)NC(=O)[C@H](Cc2ccccc2)NC(=O)[C@H](CC(N)=O)NC(=O)[C@H](Cc2ccccc2)NC(=O)CSC[C@@H](C(=O)NCC(=O)NCC(=O)N[C@@H](CCCCNC(=S)Nc2ccc(CC3CN(CC(=O)O)CCN(CC(=O)O)CCN3CC(=O)O)cc2)C(N)=O)NC(=O)[C@@H]2CCCN2C(=O)[C@H](CCC(N)=O)NC(=O)[C@H](Cc2c[nH]c3ccccc23)NC(=O)[C@H]([C@@H](C)O)NC(=O)[C@H](CC(=O)O)NC1=O (some centres unmarked) [Compound 2a, *F.N.F.E.D.Q.S.A.D.T.W.Q.P.*C.G.G.K(NOTA-1).NH2] ({CH2CO}-FNFEDQSADTWQPCGGK(X1)-NH2; thioether N-14) | < 8 |  | 
4 | C[C@@H](O)[C@@H]1NC(=O)[C@H](CC(=O)O)NC(=O)[C@@H]2CCCN2C(=O)[C@H](CO)NC(=O)[C@H](CCC(N)=O)NC(=O)[C@H](CC(=O)O)NC(=O)[C@H](CCC(=O)O)NC(=O)[C@H](Cc2ccccc2)NC(=O)[C@H](CC(N)=O)NC(=O)[C@H](Cc2ccccc2)NC(=O)CSC[C@@H](C(=O)NCC(N)=O)NC(=O)[C@@H]2CCCN2C(=O)[C@H](CCC(N)=O)NC(=O)[C@H](Cc2c[nH]c3ccccc23)NC1=O [Compound 25a, *F.N.F.E.D.Q.S.P.D.T.W.Q.P.*C.G.NH2] ({CH2CO}-FNFEDQSPDTWQPCG-NH2; thioether N-14) | < 8 |  | 
5 | C[C@@H](O)[C@@H]1NC(=O)[C@H](CC(=O)O)NC(=O)[C@@H]2CCCN2C(=O)[C@H](CO)NC(=O)[C@H](CCC(N)=O)NC(=O)[C@H](CC(=O)O)NC(=O)[C@H](CCC(=O)O)NC(=O)[C@H](Cc2ccccc2)NC(=O)[C@H](CC(N)=O)NC(=O)[C@H](Cc2ccccc2)NC(=O)CSC[C@@H](C(=O)NCC(N)=O)NC(=O)[C@@H]2Cc3ccccc3CN2C(=O)[C@H](CCC(N)=O)NC(=O)[C@H](Cc2c[nH]c3ccccc23)NC1=O [Compound 53a, *F.N.F.E.D.Q.S.P.D.T.W.Q.Tic.*C.G.NH2] ({CH2CO}-FNFEDQSPDTWQ[Tic]CG-NH2; thioether N-14) |  |  | Kd [2]: 4.9 nM
6 | C[C@@H]1C[C@H]2C(=O)N[C@H](C(=O)NCC(N)=O)CSCC(=O)N[C@@H](Cc3ccccc3)C(=O)N[C@@H](CC(N)=O)C(=O)N[C@@H](Cc3ccccc3)C(=O)N[C@@H](CCC(=O)O)C(=O)N[C@@H](CC(=O)O)C(=O)N[C@@H](CCC(N)=O)C(=O)N[C@@H](CO)C(=O)N3CCC[C@H]3C(=O)N[C@@H](CC(=O)O)C(=O)N[C@@H]([C@@H](C)O)C(=O)N[C@@H](Cc3c[nH]c4ccccc34)C(=O)N[C@@H](CCC(N)=O)C(=O)N2C1 [Compound 55a, *F.N.F.E.D.Q.S.P.D.T.W.Q.Prot4Me.*C.G.NH2] ({CH2CO}-FNFEDQSPDTWQ[Pro(4R-Me)]CG-NH2; thioether N-14) |  |  | Kd [2]: 5.1 nM
7 | C[C@@H](O)[C@@H]1NC(=O)[C@H](CC(=O)O)NC(=O)[C@@H]2C[C@@H](F)CN2C(=O)[C@H](CO)NC(=O)[C@H](CCC(N)=O)NC(=O)[C@H](CC(=O)O)NC(=O)[C@H](CCC(=O)O)NC(=O)[C@H](Cc2ccccc2)NC(=O)[C@H](CC(N)=O)NC(=O)[C@H](Cc2ccccc2)NC(=O)CSC[C@@H](C(=O)NCC(=O)NCC(=O)N[C@@H](CCCCN)C(N)=O)NC(=O)[C@@H]2CCCN2C(=O)[C@H](CCC(N)=O)NC(=O)[C@H](Cc2c[nH]c3ccccc23)NC1=O [Compound 87a, *F.N.F.E.D.Q.S.Prot4F.D.T.W.Q.P.*C.G.G.K.NH2] ({CH2CO}-FNFEDQS[Pro(trans-4-F)]DTWQPCGGK-NH2; thioether N-14) |  |  | Kd [2]: 4.2 nM
8 | {CH2CO}-FNFEDQSADTWQPCG-NH2 (thioether N-14; SMILES C[C@@H]1NC(=O)[C@H](CO)NC(=O)[C@H](CCC(N)=O)NC(=O)[C@H](CC(=O)O)NC(=O)[C@H](CCC(=O)O)NC(=O)[C@H](Cc2ccccc2)NC(=O)[C@H](CC(N)=O)NC(=O)[C@H](Cc2ccccc2)NC(=O)CSC[C@@H](C(=O)NCC(N)=O)NC(=O)[C@@H]2CCCN2C(=O)[C@H](CCC(N)=O)NC(=O)[C@H](Cc2c[nH]c3ccccc23)NC(=O)[C@H]([C@@H](C)O)NC(=O)[C@H](CC(=O)O)NC1=O) [Compound 1a] |  | < 8 | Kd [4]: 19.8 nM
9 | Compound 5a (linker I:17-II:17 via PEG2′; also: dimer of two macrocycles linked by PEG2 between Lys17 side chains, thioether at chain A 14 to a chain's N-terminus, thioether at chain B 14 to a chain's N-terminus, Dimer of two macrocycles linked by PEG2) peptide 1: {‑CH2C(O)‑}-FNFEDQSADTWQPCGGK-NH2 peptide 2: {‑CH2C(O)‑}-FNFEDQSADTWQPCGGK-NH2 |  | < 8 | 
10 | {CH2CO}-FNFEDQS[Pro(trans-4-F)]DTWQPCGGK(NOTA‑1)-NH2 (thioether N-14) [Compound 12a] |  | < 8 | Kd [4]: 1.6 nM
11 | {CH2CO}-FNFEDQSADTWQPCGGK(NOTA‑1)-NH2 (thioether N-14) [Compound 2a] |  | < 8 | Kd [4]: 13.5 nM
